According to patent publication US20080146614A1, “Therapeutic Agents” (priority 2004, published 2008):

Target: T1, CB1 receptor (Homo sapiens, UniProt P21554)
T1 construct: expressed in transfected cells
Assay: [35S]-GTPγS binding assay on membranes from cells stably transfected with the CB1 gene, inhibition of agonist CP55940 (EC80)
Assay type: biochemical
Conditions: half maximal inhibition of GTPγS binding, EC80 concentration of CP55940
Method: 10 μg of membranes prepared from cells stably transfected with the CB1 gene were suspended in 200 μl of 100 mM NaCl, 5 mM MgCl2, 1 mM EDTA, 50 mM HEPES (pH 7.4), 1 mM DTT, 0.1% BSA and 100 μM GDP. To this was added an EC80 concentration of agonist (CP55940), the required concentration of test compound and 0.1 μCi [^35S]-GTPγS. The reaction was allowed to proceed at 30° C. for 45 min. Samples were then transferred on to GF/B filters using a cell harvester and washed with wash buffer (50 mM Tris (pH 7.4), 5 mM MgCl2, 50 mM NaCl). Filters were then covered with scintilant and counted for the amount of [^35S]-GTPγS retained by the filter.
Activity is measured in the absence of all ligands (minimum activity) or in the presence of an EC80 concentration of CP55940 (maximum activity). These activities are set as 0% and 100% activity respectively. At various concentrations of novel ligand, activity is calculated as a percentage of the maximum activity and plotted. The data are fitted using the equation y=A+((B−A)/1+((C/x)UD)) and the IC50 value determined as the concentration required to give half maximal inhibition of GTPγS binding under the conditions used.

T1 sequence (P21554 whole entry): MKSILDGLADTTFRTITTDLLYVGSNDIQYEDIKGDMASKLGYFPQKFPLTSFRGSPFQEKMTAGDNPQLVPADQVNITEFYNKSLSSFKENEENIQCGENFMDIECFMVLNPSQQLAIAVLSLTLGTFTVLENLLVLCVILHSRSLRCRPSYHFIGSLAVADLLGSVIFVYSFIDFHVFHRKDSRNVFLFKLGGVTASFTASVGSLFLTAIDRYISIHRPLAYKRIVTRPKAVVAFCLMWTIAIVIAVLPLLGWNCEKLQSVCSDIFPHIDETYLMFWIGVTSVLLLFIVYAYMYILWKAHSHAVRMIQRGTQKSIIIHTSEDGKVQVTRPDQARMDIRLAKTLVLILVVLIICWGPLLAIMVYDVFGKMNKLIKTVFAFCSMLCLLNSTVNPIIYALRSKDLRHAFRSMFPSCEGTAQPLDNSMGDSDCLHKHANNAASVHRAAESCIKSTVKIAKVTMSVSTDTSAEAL

IC50: 3.3 nM
SMILES: CCCS(=O)(=O)Oc1ccc(-c2c(CO)c(C(=O)NN3CCCCC3)nn2-c2ccc(Cl)cc2Cl)cc1 [Example 1, Propane-1-sulfonic acid 4-[2-(2,4-dichlorophenyl)-4-hydroxymethyl-5-(piperidin-1-ylcarbamoyl)-2H-pyrazol-3-yl]-phenyl ester]
